Laboratory results from ChEMBL document CHEMBL1201862, “PubChem BioAssay data set” (2004).
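Cultured in 96-well plates, cells were exposed to test compound for 48 hours across five concentrations. GI50 is the concentration that inhibits growth by half.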 Active and inactive are the calls of the source. Rule as the data show it: active = GI50 up to about 1.1 µM and inactive = higher.

What was measured:
Test in all cases: growth of human tumour cells (NCI), 48 h
BT-549 = tested on: BT-549
HOP-62 = tested on: HOP-62
HT-29 = tested on: HT-29
IGROV-1 = tested on: IGROV-1
KM12 = tested on: KM12
M14 = tested on: M14
MDA-MB-231 = tested on: MDA-MB-231
OVCAR-4 = tested on: OVCAR-4
RPMI-8226 = tested on: RPMI-8226
SF-268 = tested on: SF-268
SF-295 = tested on: SF-295
SK-MEL-2 = tested on: SK-MEL-2
SN12C = tested on: SN12C
SW-620 = tested on: SW-620
T47D = tested on: T47D
U-251 = tested on: U-251
UACC-257 = tested on: UACC-257
NCI-H460 = tested on: NCI-H460
RXF 393 = tested on: RXF 393
SNB-19 = tested on: SNB-19

Row | Compound | GI50 (BT-549) | GI50 (HOP-62) | GI50 (HT-29) | GI50 (IGROV-1) | GI50 (KM12) | GI50 (M14) | GI50 (MDA-MB-231) | GI50 (OVCAR-4) | GI50 (RPMI-8226) | GI50 (SF-268) | GI50 (SF-295) | GI50 (SK-MEL-2) | GI50 (SN12C) | GI50 (SW-620) | GI50 (T47D) | GI50 (U-251) | GI50 (UACC-257) | GI50 (NCI-H460) | GI50 (RXF 393) | GI50 (SNB-19)
1 | COc1ccc2c(c1)C1Oc3ccccc3CC1(O)CO2 (stereo not given) | > 100 µM (inactive) | > 100 µM (inactive) | > 100 µM (inactive) | > 100 µM (inactive) | > 100 µM (inactive) | > 100 µM (inactive) | > 100 µM (inactive) | > 100 µM (inactive) | > 100 µM (inactive) | > 100 µM (inactive) | > 100 µM (inactive) | > 100 µM (inactive) | > 100 µM (inactive) | > 100 µM (inactive) | > 100 µM (inactive) | > 100 µM (inactive) | > 100 µM (inactive) | – | – | –
2 | CC(C)(C)C1CCC2c3c([nH]c4ccccc34)C3C(=O)N(c4ccccc4[N+](=O)[O-])C(=O)C3C2C1 (stereo not given) | 21.7 µM (inactive) | 4.53 µM (inactive) | 4.32 µM (inactive) | 16.7 µM (inactive) | – | 13.8 µM (inactive) | 10.6 µM (inactive) | – | 17.5 µM (inactive) | > 10 µM (inactive) | 12.3 µM (inactive) | 14.9 µM (inactive) | 14.6 µM (inactive) | 11.5 µM (inactive) | – | 16 µM (inactive) | 22.2 µM (inactive) | 4.25 µM (inactive) | 6.65 µM (inactive) | 19.3 µM (inactive)
3 | COc1ccc2c3c1O[C@H]1C(=O)C=CC4(n5[nH]c(=O)n(-c6ccccc6)c5=O)C(C2)N(C)CCC314 (stereo not given in full) | > 100 µM (inactive) | > 100 µM (inactive) | > 100 µM (inactive) | > 100 µM (inactive) | > 100 µM (inactive) | > 100 µM (inactive) | > 100 µM (inactive) | > 100 µM (inactive) | > 100 µM (inactive) | > 100 µM (inactive) | > 100 µM (inactive) | > 100 µM (inactive) | > 100 µM (inactive) | > 100 µM (inactive) | > 100 µM (inactive) | > 100 µM (inactive) | – | – | – | > 100 µM (inactive)
4 | Nc1nc(N)c2nc(CNc3ccc(C(=O)NC(CCC(=O)O)C(=O)O)cc3F)cnc2n1 (stereo not given) | – | < 0.01 µM (active) | < 0.01 µM (active) | < 0.01 µM (active) | < 0.01 µM (active) | < 0.01 µM (active) | > 57.9 µM (inactive) | > 81.7 µM (inactive) | < 0.01 µM (active) | < 0.01 µM (active) | < 0.01 µM (active) | > 59 µM (inactive) | < 0.01 µM (active) | < 0.01 µM (active) | < 0.01 µM (active) | < 0.01 µM (active) | > 100 µM (inactive) | < 0.01 µM (active) | > 100 µM (inactive) | < 0.01 µM (active)
5 | C[N+]1(C)C(c2ccccc2)C(=O)O[B@-]1(F)c1ccccc1 (stereo not given in full) | > 100 µM (inactive) | > 100 µM (inactive) | > 100 µM (inactive) | > 100 µM (inactive) | – | > 100 µM (inactive) | > 100 µM (inactive) | > 100 µM (inactive) | > 100 µM (inactive) | > 100 µM (inactive) | > 100 µM (inactive) | – | > 100 µM (inactive) | > 100 µM (inactive) | > 100 µM (inactive) | > 100 µM (inactive) | > 100 µM (inactive) | > 100 µM (inactive) | – | > 100 µM (inactive)
6 | O=c1c2ccccc2c2c1c1c3ccccc3c(=O)c1c1c3ccccc3c(=O)c21 | > 100 µM (inactive) | > 100 µM (inactive) | > 100 µM (inactive) | > 100 µM (inactive) | > 100 µM (inactive) | > 100 µM (inactive) | > 100 µM (inactive) | – | > 100 µM (inactive) | > 100 µM (inactive) | > 100 µM (inactive) | > 100 µM (inactive) | > 100 µM (inactive) | > 100 µM (inactive) | > 100 µM (inactive) | > 100 µM (inactive) | > 100 µM (inactive) | > 100 µM (inactive) | – | > 100 µM (inactive)
7 | CCOP(=O)(Nc1ccc(-c2ccccc2)cc1)OCC | > 100 µM (inactive) | > 100 µM (inactive) | 75.7 µM (inactive) | 71.3 µM (inactive) | > 100 µM (inactive) | > 100 µM (inactive) | > 100 µM (inactive) | 96.4 µM (inactive) | 43.3 µM (inactive) | 74.6 µM (inactive) | > 100 µM (inactive) | > 100 µM (inactive) | – | – | – | > 100 µM (inactive) | > 100 µM (inactive) | > 100 µM (inactive) | 34.6 µM (inactive) | > 100 µM (inactive)
8 | CC1C2(C)OCC(C#N)(C(=N)O2)C1(C#N)C#N (stereo not given) | 35.2 µM (inactive) | – | 15.8 µM (inactive) | 33 µM (inactive) | 36.2 µM (inactive) | 16.1 µM (inactive) | 17.9 µM (inactive) | – | – | 22.8 µM (inactive) | 78 µM (inactive) | 14.4 µM (inactive) | 15.7 µM (inactive) | 25.9 µM (inactive) | 12.6 µM (inactive) | 16.3 µM (inactive) | 23.9 µM (inactive) | 18.5 µM (inactive) | 27.4 µM (inactive) | 43.5 µM (inactive)
9 | COc1ccc2c(c1)/C(=C(\C(Cl)=C(Cl)Cl)[N+](=O)[O-])N2 | 49.7 µM (inactive) | > 100 µM (inactive) | > 100 µM (inactive) | > 100 µM (inactive) | > 100 µM (inactive) | > 100 µM (inactive) | > 100 µM (inactive) | 49.1 µM (inactive) | – | 70.3 µM (inactive) | 62.4 µM (inactive) | – | > 100 µM (inactive) | 73.8 µM (inactive) | 67.3 µM (inactive) | 91.2 µM (inactive) | > 100 µM (inactive) | > 100 µM (inactive) | 39.5 µM (inactive) | > 100 µM (inactive)
10 | Cc1nnc(N)nc1/C=C\c1ccc(N(C)C)cc1 | > 20.9 µM (inactive) | 38.5 µM (inactive) | 8.83 µM (inactive) | 37.5 µM (inactive) | 12.3 µM (inactive) | 27 µM (inactive) | – | 26.5 µM (inactive) | 9.86 µM (inactive) | > 34.2 µM (inactive) | > 41.2 µM (inactive) | 39.8 µM (inactive) | > 100 µM (inactive) | > 64.6 µM (inactive) | > 24.6 µM (inactive) | > 27.1 µM (inactive) | 22.5 µM (inactive) | 9.66 µM (inactive) | > 40.1 µM (inactive) | 15.2 µM (inactive)
11 | CCOC(=O)CCC(NC(=O)c1ccc(Nc2nc3ccccc3nc2C(=O)OCC)cc1)C(=O)OCC (stereo not given) | 7.66 µM (inactive) | 3.89 µM (inactive) | 4.67 µM (inactive) | 3.54 µM (inactive) | 3.78 µM (inactive) | 8.89 µM (inactive) | 9.62 µM (inactive) | 1.61 µM (inactive) | 6.76 µM (inactive) | 7.71 µM (inactive) | 7.71 µM (inactive) | 6.79 µM (inactive) | 15.7 µM (inactive) | 5.77 µM (inactive) | 2.18 µM (inactive) | 3.12 µM (inactive) | 18.9 µM (inactive) | > 72.1 µM (inactive) | – | 3.94 µM (inactive)
